Source: ChEMBL document CHEMBL1201862, “PubChem BioAssay data set” (2004)
Activity calls are given as the source filed them.

Assays:
[1] = target: T1, Rac GTPase-activating protein 1 (Homo sapiens, UniProt Q9H0H5); assay: MgcRacGAP GTPase-activating activity inhibitors, confirmation, biochemical, ADP Hunter fluorescence, primary and confirmatory (AID 624330); format: functional
T1 sequence (Q9H0H5 whole entry): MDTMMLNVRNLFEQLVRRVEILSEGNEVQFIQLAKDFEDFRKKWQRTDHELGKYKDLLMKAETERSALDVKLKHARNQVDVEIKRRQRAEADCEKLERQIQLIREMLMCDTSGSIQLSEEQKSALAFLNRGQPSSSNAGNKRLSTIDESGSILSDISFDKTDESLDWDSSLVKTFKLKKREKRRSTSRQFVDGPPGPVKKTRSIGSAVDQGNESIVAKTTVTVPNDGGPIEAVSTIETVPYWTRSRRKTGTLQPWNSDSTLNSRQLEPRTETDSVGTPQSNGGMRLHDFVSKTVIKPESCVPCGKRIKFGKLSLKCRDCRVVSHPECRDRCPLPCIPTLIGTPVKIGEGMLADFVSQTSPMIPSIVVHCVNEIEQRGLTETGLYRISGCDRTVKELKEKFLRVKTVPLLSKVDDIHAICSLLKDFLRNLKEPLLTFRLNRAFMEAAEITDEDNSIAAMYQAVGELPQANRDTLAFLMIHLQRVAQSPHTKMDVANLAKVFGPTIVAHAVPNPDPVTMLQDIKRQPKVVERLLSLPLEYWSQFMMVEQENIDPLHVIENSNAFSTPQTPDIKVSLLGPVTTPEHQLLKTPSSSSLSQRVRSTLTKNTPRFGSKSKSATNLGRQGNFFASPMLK

[2] = target: T2, Corticotropin-releasing factor receptor 2/Corticotropin-releasing factor-binding protein (Homo sapiens, UniProt P24387+Q13324); assay: Dose Response confirmation of uHTS hits for small molecule antagonists of the CRF-binding protein and CRF-R2 receptor complex.; format: functional; settings: read-out: IC50_Mean
T2 sequence (Q13324 whole entry): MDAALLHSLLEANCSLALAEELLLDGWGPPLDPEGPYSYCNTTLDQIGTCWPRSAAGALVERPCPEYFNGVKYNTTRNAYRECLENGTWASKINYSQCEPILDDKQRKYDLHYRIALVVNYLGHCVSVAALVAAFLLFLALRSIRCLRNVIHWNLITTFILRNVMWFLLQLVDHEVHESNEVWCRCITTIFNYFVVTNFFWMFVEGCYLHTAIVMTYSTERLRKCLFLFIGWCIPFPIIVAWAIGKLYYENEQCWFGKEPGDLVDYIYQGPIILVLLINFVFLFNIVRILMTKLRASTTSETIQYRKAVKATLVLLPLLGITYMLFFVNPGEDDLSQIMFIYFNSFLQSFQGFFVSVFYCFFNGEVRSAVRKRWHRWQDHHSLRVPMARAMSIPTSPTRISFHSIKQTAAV
T2 sequence (P24387 whole entry): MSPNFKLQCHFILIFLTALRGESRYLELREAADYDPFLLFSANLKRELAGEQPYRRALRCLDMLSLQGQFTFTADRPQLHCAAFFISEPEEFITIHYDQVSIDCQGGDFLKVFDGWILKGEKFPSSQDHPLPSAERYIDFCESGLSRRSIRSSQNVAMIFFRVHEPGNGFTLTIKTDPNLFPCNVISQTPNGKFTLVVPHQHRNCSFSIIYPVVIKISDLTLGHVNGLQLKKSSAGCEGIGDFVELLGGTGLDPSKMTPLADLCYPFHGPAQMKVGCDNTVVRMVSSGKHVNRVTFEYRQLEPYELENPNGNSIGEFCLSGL

[3] = target: T2, Corticotropin-releasing factor receptor 2/Corticotropin-releasing factor-binding protein; assay: activators of CRF receptor 2 with binding protein – uHTS hits, confirmation (AID 602473); format: functional; settings: read-out: EC50_Mean
Cytochrome P450 3A4 = Cytochrome P450 3A4 (Homo sapiens, UniProt P08684);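 also: CYP3A4 tested as one member of a cytochrome P450 panel screen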
Chain of Cytochrome P450 3A4 (P08684 whole entry): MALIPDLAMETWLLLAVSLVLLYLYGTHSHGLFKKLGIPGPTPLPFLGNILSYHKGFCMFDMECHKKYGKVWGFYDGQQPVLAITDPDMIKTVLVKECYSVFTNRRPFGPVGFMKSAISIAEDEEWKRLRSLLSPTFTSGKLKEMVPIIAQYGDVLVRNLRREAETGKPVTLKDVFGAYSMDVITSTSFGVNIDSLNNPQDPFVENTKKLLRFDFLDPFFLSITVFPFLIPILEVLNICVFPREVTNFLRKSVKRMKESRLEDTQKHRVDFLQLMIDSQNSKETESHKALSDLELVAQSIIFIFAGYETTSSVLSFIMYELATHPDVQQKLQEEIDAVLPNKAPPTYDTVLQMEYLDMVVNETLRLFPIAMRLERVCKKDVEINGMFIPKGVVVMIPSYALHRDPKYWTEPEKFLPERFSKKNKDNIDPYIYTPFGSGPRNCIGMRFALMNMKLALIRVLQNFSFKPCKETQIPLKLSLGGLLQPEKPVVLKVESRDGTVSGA

INS1 = assay: beta cell apoptosis inhibitors, cytokine rescue, dose response, luminescence, retest (AID 449756); format: functional, cell-based; settings: Rattus norvegicus, INS1;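 also: cell death triggered by IL-1 beta plus TNF-alpha plus IFN-gamma mixture; protective hits raise ATP signal compared with cytokine alone wells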
[4] = inhibitors of intracellular T. cruzi replication, confirmation, NIH3T3 host cells, beta-gal luminescence (AID 2044); format: functional, cell-based;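 also: intracellular parasites grown in NIH/3T3 mouse fibroblasts as host cells; luminescent beta-galactosidase reporter signal from transgenic T. cruzi replicating inside host cells; inhibitors lower the luminescence signal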
[5] = cytotoxicity toward NIH3T3 fibroblasts, dose response, counter-screen, cell-based, ATP luminescence, mouse fibroblasts (AID 2010); format: functional;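 also: cells exposed to compound for about 90 hours before reading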
[6] = inhibitors of firefly luciferase expression or activity, dose response, H4 neuroglioma cells, luminescence (AID 1990); format: functional, cell-based
[7] = Luminescence Cell-Based Dose Response HTS to Identify Inhibitors of 5'UTR Stem-Loop Driven Prion Protein mRNA Translation in H4 Neuroglioblastoma Cells. [Related pubchem assays: 1827 (Project Summary), 1813 (Primary HTS)]; format: functional
[8] = inhibitors of SNCA 5'UTR-driven reporter translation, confirmation, H4 neuroglioma cells, luminescence (AID 1988); format: functional, cell-based
[9] = test system: Streptococcus sp. 'group A'; assay: growth inhibition of control SK(-) GAS strain, dose response, counter-screen for streptokinase expression inhibitor project, luminescence, kanamycin, BacTiterGlo, confirmation (AID 1900); format: functional, organism-based
Streptokinase A = target: T3, Streptokinase A (Streptococcus pyogenes serotype M1, UniProt P10520); assay: S. pyogenes streptokinase expression inhibitors, potency, dose response, plasminogen activation absorbance, OD405 (AID 1914); format: functional, Streptococcus pyogenes M1 GAS;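 also: secreted streptokinase activity via plasminogen activation per viability signal from cell pellet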
T3 sequence (P10520 whole entry): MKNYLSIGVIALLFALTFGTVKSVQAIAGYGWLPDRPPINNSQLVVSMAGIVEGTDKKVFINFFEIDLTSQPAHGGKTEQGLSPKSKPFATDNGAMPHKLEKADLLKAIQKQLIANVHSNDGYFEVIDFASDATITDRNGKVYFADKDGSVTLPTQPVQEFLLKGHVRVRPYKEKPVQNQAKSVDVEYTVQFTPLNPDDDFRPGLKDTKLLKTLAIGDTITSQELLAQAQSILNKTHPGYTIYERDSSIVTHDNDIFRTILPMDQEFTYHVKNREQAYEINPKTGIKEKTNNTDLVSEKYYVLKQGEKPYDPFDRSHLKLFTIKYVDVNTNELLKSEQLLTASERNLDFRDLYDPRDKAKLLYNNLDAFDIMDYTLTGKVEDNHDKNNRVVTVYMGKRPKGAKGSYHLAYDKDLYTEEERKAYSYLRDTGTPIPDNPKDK

Streptococcus = assay: Group A Streptococcus viability loss, dose response, counter-screen for streptokinase expression inhibitor project, luminescence, BacTiterGlo (AID 1915); format: functional, organism-based;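 also: potency for reduction of bacterial viability or growth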

SMILES	IC50 [1]	IC50 [2]	EC50 [3]	further results
CC(C)NCC(=O)Nc1c2c(nc3ccccc13)CCC2	53.2 µM (active)			
COc1ccccc1N1CCN(C(=O)/C=C/c2cccs2)CC1		> 47.1 µM (inactive)	> 53 µM (inactive)	
CC(C)(C)N=C(S)Nc1ccc(Nc2ccccc2)cc1	103 µM (active)			AC50 (Cytochrome P450 3A4): 11.2 µM (inconclusive)
O=C(c1ccc2snnc2c1)N1CCN(c2ccccn2)CC1		> 47.1 µM (inactive)	> 53 µM (inactive)	
Nc1ccc2c(c1)Cc1cc(N)c(Br)cc1-2	7.57 µM (active)			
COC(=O)c1[nH]c2ccccc2c1NC(=O)Oc1ccccc1	15.9 µM (active)			
O=[N+]([O-])c1cc(C(F)(F)F)ccc1NCCCCNS(=O)(=O)c1ccc(Cl)cc1				AC50 (INS1): 6.5 µM (active)
O=C1C=C(c2ccc(F)cc2OCc2ccccc2)C[C@@H](c2ccc(Cl)cc2)C1				AC50 (INS1): 4.89 µM (active)
O=[N+]([O-])c1cccc(CN2CCN(Cc3ccco3)CC2)c1	98.5 µM (active)			
COc1ccccc1Nc1nnc(S)s1	57.1 µM (active)			
O=C(CNC(=O)c1cccnc1)N/N=C/c1ccc(O)cc1O	97.4 µM (active)			
Cc1ccc(C)c(C(C)NC(=O)c2ccccc2Br)c1 (centres undefined)		> 47.1 µM (inactive)	> 53 µM (inactive)	
C/C(=N\NC(=O)c1ccc(NS(=O)(=O)c2cccs2)cc1)c1ccccc1		> 47.1 µM (inactive)	> 53 µM (inactive)	
C/C(=N\Nc1nc(C)cc(-c2ccccc2)n1)c1ccc(F)cc1				AC50 (INS1): 3.13 µM (active)
C[C@H](NC(=O)[C@@H]1Cc2ccccc2CN1)C(=O)NC1CCCCC1		> 47.1 µM (inactive)	> 53 µM (inactive)	
CC1(C)CC(=O)C=C(Nc2ccc(O)cc2)C1	20.2 µM (active)			

SMILES	IC50 [1]	IC50 [2]	EC50 [3]	further results
CNc1nc(NC)nc(NNC(=O)c2ccccc2)n1		> 47.1 µM (inactive)	> 53 µM (inactive)	
O=C(COc1ccccc1)N1CCN(CC2CC3C=CC2C3)CC1 (centres undefined)	175 µM (active)			
Cc1ccccc1NS(=O)(=O)c1ccc(C(=O)N(C)CC(=O)Nc2ccccc2Br)cc1		> 47.1 µM (inactive)	> 53 µM (inactive)	
COc1ccc(C(=O)NCC(=O)N/N=C/c2ccc([N+](=O)[O-])s2)cc1OC				EC50 [4]: 0.504 µM (active); EC50 [5]: > 60 µM (not active); AC50 (INS1): 8.94 µM (active)
CC(NC(=O)COC(=O)C12CC3CC(CC(Br)(C3)C1)C2)c1ccccc1 (centres undefined)		> 47.1 µM (inactive)	> 53 µM (inactive)	
COc1cc(/C=C/CN2CCN(CCC(C)C)C(CCO)C2)ccc1O (centres undefined)	101 µM (active)			
O=C(NCC1OCCc2ccccc21)c1ccc(NC(=O)c2ccc(Cl)cc2)cc1 (centres undefined)				EC50 [6]: > 120 µM (not active); EC50 [7]: 14.2 µM (active); EC50 [8]: 12.5 µM (active)
CCCCCCc1ccc(N2C[C@H](Cc3ccccc3)[C@@H](CC(=O)Nc3ccccc3)C2=O)cc1				AC50 (INS1): 14.2 µM (active)
COc1cccc(/C=N/NC(=O)c2c(-c3ccccc3)noc2C)c1O				AC50 (INS1): 2.5 µM (active)
CCn1c(C)nc2cc(C(=O)NN=Cc3ccc([N+](=O)[O-])cc3)ccc21		> 47.1 µM (inactive)	> 53 µM (inactive)	
O=C(Oc1ccc2c(c1)OCO2)c1ccc(Br)c(S(=O)(=O)N2CCOCC2)c1	76.1 µM (active)			
Cc1ccc(C)c(NC(S)=NCCCN2CCOCC2)c1		> 47.1 µM (inactive)	> 53 µM (inactive)	
O=C1CC(Nc2cc(O)nc(O)n2)C(=O)N1c1ccccc1Cl (centres undefined)		> 47.1 µM (inactive)	> 53 µM (inactive)	
N=c1nc(N)nc2n1NC(c1ccc(F)cc1)=CS2				EC50 [6]: > 120 µM (not active); EC50 [7]: > 120 µM (not active); EC50 [8]: 13.7 µM (active)
CCC(C)Nc1nc(N)c([N+](=O)[O-])c(Nc2cc(OC)ccc2OC)n1 (centres undefined)				EC50 [6]: 10.7 µM (active); EC50 [9]: 2.35 µM (active); EC50 [7]: 12.8 µM (active); EC50 [8]: 13.3 µM (active); EC50 (Streptokinase A): > 150 µM (not active); EC50 (Streptococcus): 11.9 µM (active)
